Measured values from patent US20230295165A1, “COMPOUNDS” (The Provost, Fellows, Foundation Scholars, and the other …, priority 2020, published 2023).

Tests used:
[1] = tested on: RA synovial primary fibroblasts (RASFCs); experiment: Synovial fibroblast assay, IL-6 ELISA on TNF-treated RASFC supernatants; assay type: cell-based, human; settings: 200 μm compound, TNF 10 ng/ml, supernatants at 72 hr, n=3 RASFCs, DMSO vehicle = 100%
Description: To assess the compounds in human rheumatoid arthritis samples the following protocol was employed:
Isolation of Primary Fibroblasts (RASFCs): RA synovial biopsies were digested with 1 mg/ml collagenase type 1 (Worthington Biochemical, Freehold, NJ, USA) in RPMI-1640 (Gibco-BRL, Paisley, UK) for 4 hr at 37° C. in humidified air with 5% CO2. Dissociated cells were grown to confluence in RPMI 1640, 10% FCS (Gibco-BRL), 10 ml of 1 mmol/l HEPES (Gibco-BRL), penicillin (100 units/ml; Bioscience), streptomycin (100 units/ml; Bioscience) and fungizone (0.25 μg/ml; Bioscience) before passaging. Cells were used between passages 3-8.
Compounds (200 μm) were Tested on n=3 RASFCs
RASFCs were grown to 80% confluency in 48 well plates. RASFCs were treated with TNF (10 ng/ml) in the presence of 200 μm of each compound. Media was replaced after 24 h and fresh media and compound was added. Cell supernatants were collected at 72 hr time point. DMSO treated cells were used as a vehicle control (Red dotted line represents DMSO control). IL-6 ELISA: Levels of pro-inflammatory cytokine IL6 were measured in cultured RASFC supernatants by specific ELISA (R&D systems, UK) according to manufacturer's conditions.
This assay measures the production of IL-6 as an indication of immune system activation: the lower the value the better from the point of view of alleviating RA symptoms. All compounds of the invention show an effect compared to the DMSO vehicle that represents no treatment. […]

[2] = target: T1, queuine-tRNA ribosyltransferase enzyme complex (hQTRT1:hQTRT2) (Homo sapiens, UniProt Q9BXR0); experiment: [8-14C] guanine displacement assay (tRNA*); assay type: biochemical; settings: 50 μM compound, 100 nM hQTRT1:hQTRT2, 30 mins at 37° C.; background ≤2%; ≥5% counts as positive substrate for TGT
T1 construct: polyhistidine tag (N); made in house; host or cells: E. coli BL21(DE3) tgt::Kmr
T1 sequence (Q9BXR0 whole entry): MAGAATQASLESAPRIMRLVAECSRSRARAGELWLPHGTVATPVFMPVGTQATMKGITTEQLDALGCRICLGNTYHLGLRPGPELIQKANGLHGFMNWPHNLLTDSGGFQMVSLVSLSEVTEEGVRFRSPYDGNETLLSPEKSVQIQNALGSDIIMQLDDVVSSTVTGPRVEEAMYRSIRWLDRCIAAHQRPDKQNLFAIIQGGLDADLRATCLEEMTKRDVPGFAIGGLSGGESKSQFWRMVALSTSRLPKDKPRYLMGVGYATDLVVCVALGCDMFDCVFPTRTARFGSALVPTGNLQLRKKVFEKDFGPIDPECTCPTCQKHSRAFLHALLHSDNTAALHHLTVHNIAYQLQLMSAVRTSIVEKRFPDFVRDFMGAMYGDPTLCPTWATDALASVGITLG
T1 sequence (Q9H974 whole entry partner): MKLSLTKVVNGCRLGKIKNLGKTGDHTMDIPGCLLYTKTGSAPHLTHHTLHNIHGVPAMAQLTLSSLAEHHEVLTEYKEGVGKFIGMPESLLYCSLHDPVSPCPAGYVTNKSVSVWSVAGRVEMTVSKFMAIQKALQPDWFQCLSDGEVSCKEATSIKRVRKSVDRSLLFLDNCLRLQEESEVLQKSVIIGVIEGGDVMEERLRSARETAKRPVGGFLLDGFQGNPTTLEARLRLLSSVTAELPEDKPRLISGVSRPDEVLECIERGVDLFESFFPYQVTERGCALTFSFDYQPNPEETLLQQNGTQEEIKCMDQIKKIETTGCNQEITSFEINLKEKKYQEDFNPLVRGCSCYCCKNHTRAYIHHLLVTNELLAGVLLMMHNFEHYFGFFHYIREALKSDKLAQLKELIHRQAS
Description: Compounds capable of acting as a queuine-tRNA ribosyltransferase enzyme complex substrate may be identified by use of a displacement assay as described below:
Production of [8-^14C] Guanine Labeled tRNA (tRNA*)
Before adding the 8-[^14C] guanine solution to the reaction the solution was neutralised with an equal volume (vol/vol) 0.01 M NaOH, as the [8-^14C] Guanine is supplied in 0.01 M HCl aqueous solution. In vitro synthesised human tyrosyl tRNA was prepared by T7 transcription in ultrapure nuclease-free water as described previously (Alqasem et al., 2020). Recombinant human QTRT1 enzyme containing an N-terminalpolyhistidine tag and human QTRT2 containing a C-terminal TEV-Strep-Tag®II tag were produced in BL21(DE3) tgt::Kmr cells as described previously (Alqasem et al., 2020).
The reaction was incubated for 1 hour at 37° C. […] The tRNA* pellet was resuspended in 30 μL nuclease-free water and the concentration measured spectrophotometrically at A260. […]
After 30 mins the reactions were quenched by mixing with 2.5 ml ice-cold 10% trichloroacetic acid (TCA) and placed on ice for one hour to precipitate the tRNA. […] The vacuum manifold was disassembled, the filters recovered and dried again at room temperature before being placed in scintillation vials containing 10 ml of Ecoscint A and radioactivity levels measured by scintillation counting. […]

Compound | Level of IL6 expression compared to vehicle [1] | displacement of the [14C] guanine [2] [%]
Cl.Nc1nc2[nH]cc(CNCCC(=O)c3ccccc3)c2c(=O)[nH]1 [Example 7, N-((2-amino-4-oxo-4,7-dihydro-3H-pyrrolo[2,3-d]pyrimidin-5-yl)methyl)-3-oxo-3-phenylpropan-1-ammonium chloride] | Reduction to 32% | –
Cl.Nc1nc2[nH]cc(CNCC[C@@H](O)c3ccccc3)c2c(=O)[nH]1 [Example 12, (R)-N-((2-amino-4-oxo-4,7-dihydro-3H-pyrrolo[2,3-d]pyrimidin-5-yl)methyl)-3-hydroxy-3-phenylpropan-1-aminium chloride] | Reduction to 55% | –
Nc1nc2[nH]cc(CN[C@H]3C=C[C@H](O)[C@@H]3O)c2c(=O)[nH]1 [queuine base, queuine] | – | > 98
Cl.Nc1nc2[nH]cc(CNCC[C@H](O)c3ccccc3)c2c(=O)[nH]1 [Example 13, (S)-N-((2-amino-4-oxo-4,7-dihydro-3H-pyrrolo[2,3-d]pyrimidin-5-yl)methyl)-3-hydroxy-3-phenylpropan-1-aminium chloride] | Reduction to 67% | –
CC(C)(CCNCc1c[nH]c2nc(N)[nH]c(=O)c12)c1ccccc1.Cl [Example 1, N-((2-amino-4-oxo-4,7-dihydro-3H-pyrrolo[2,3-d]pyrimidin-5-yl)methyl)-3-methyl-3-phenylbutan-1-ammonium chloride] | Reduction to 37% | –
Cl.Nc1nc2[nH]cc(CNCCC(c3ccccc3)c3ccccc3)c2c(=O)[nH]1 [Example 10, N-((2-amino-4-oxo-4,7-dihydro-3H-pyrrolo[2,3-d]pyrimidin-5-yl)methyl)-3,3-diphenylpropan-1-ammonium chloride] | Reduction to 56% | –
C[C@@H]1CCN(C(=O)CC#N)C[C@@H]1N(C)c1ncnc2[nH]ccc12 [Positive control (Tofacitinib), Tofacitinib, reference compound] | Reduction to 57% | –
Cl.Nc1nc2[nH]cc(CNCCNc3ccccc3)c2c(=O)[nH]1 [Example 5, N-((2-amino-4-oxo-4,7-dihydro-3H-pyrrolo[2,3-d]pyrimidin-5-yl)methyl)-2-(phenylamino)ethan-1-aminium chloride] | Reduction to 48% | –
